Where two headings read alike, the source gives them in different places.
Legend:
[1] = molecular target: CYP1A2 (Homo sapiens (Human), UniProt P05177); test: CYP1A2 inhibition in human liver microsomes; format: in vitro ADME
Procedure: The specific marker metabolites are measured with LC/MS/MS. The remaining enzymatic activities and inhibitory potency IC50 are determined. Microsomes are removed out of the −80° C. freezer to thaw on ice and 20 μL of the substrates solution added to the corresponding wells. […] Then 158 μL of the HLM working solution was added to all wells of the incubation plate. The plate was pre-warmed for about 10 min using a 37° C. water bath. Then 20 μL of the NADPH cofactor solution was added to all incubation wells, mixed and incubated for 10 minutes at 37° C. water bath. The reaction is terminated by adding 400 μL cold stop solution (200 ng/mL Tolbutamide and 200 ng/mL Labetalol in ACN). […] Finally 200 μL of the supernatant was transferred to 100 μL HPLC water, shaken for 10 min and analyzed by LC/MS/MS.

[2] = molecular target: human Nav1.6 (hNav1.6) (Homo sapiens (Human), UniProt Q9UQD0); test: Inhibition of late sodium current (INaL) at hNav1.6, PatchXpress electrophysiology; format: cell-based; details: 1 μM compound; HEK-293 cells expressing recombinant hNav1.6; late current evoked by 300 nM ATX-II
Procedure: Functional characterization of exemplary compounds to modulate INaL expressed by the Nav1.6 voltage-gated sodium channel was accomplished using the PatchXpress™ high throughput electrophysiology platform (Molecular Devices, Sunnyvale, CA). HEK-293 cells expressing recombinant, human Nav1.6 (hNav1.6)were grown in DMEM/high-glucose Dulbecco's modified, 10% FBS, 2 mM sodium pyruvate, 10 mM HEPES and 400 μg/mL G418. Cells were grown to 50%-80% confluency prior to harvesting. […] The onboard liquid handling facility of the PatchXpress was used for dispensing cells and applying test compounds. Nav late currents were evoked by the application of 300 nM ATX-II. […] INaL amplitude and stability were determined by analyzing the mean current amplitude over the final 20 ms of the test pulse. […] Percent steady-state inhibition of INaL was calculated as: [(INaL_compound)/(INaL_control)]*100, where INaL_compound and INaL_control represent INaL recorded in the presence or absence of compound, respectively.

[3] = PK rat clearance experiment; details: male Sprague-Dawley rats, single intravenous bolus 0.5 mg/kg, plasma
Procedure: (§1) The IV dosing solution was prepared freshly on the dosing day. Test article (0.5 mg/kg) was prepared in a vehicle, for example, consisting of 5% DMSO/5% solutol/90% water. The concentrations of test article in all dosing solutions were determined by HPLC/UV. Three male Sprague-Dawley rats were used in this study. The animals were confirmed healthy before being assigned to the study. Each animal was given a unique identification number which was marked on the tail or the ear, and written on the cage card. All animals were fasted overnight before dosing and the food was returned at 4 hours post dosing. Water was provided to all animals ad libitum during the fasting period. Animals were weighed prior to dose administration on the day of dosing for calculating the actual dose volume. The body weights were in the range from 212 g to 223 g for males. All animals received test article by single intravenous bolus administration at 0.5 mg/kg. Approximately 0.2 mL blood was collected at each time point via jugular vein from each study animal. […] All blood samples were transferred into pre-labeled plastic micro centrifuge tubes and mixed with the pre-loaded anti-coagulant K2EDTA (5 μL, 0.5 M). Plasma samples were then prepared by centrifuging the blood samples. All plasma samples were then quickly frozen over dry ice and kept at −60° C. or lower until LC/MS/MS analysis. The concentrations of test article in plasma were determined by using a quantitative bioanalytical LC/MS/MS method. The lower limit of quantitation (LLOQ) for test article in plasma was 1 ng/mL, and the upper limit of quantitation (ULOQ) in plasma was 3000 ng/mL. The plasma concentration of test article in rats was subjected to a non compartmental pharmacokinetic analysis by using the Phoenix WinNonlin software (version 6.3, Pharsight, Mountain View, CA).
(§2) The linear/log trapezoidal rule was applied in obtaining the PK parameters.

[4] = rat, in vivo, iv, 0.5 mg/kg
Procedure: as §1, §2

[5] = pooled human liver microsomes, substrate Phenacetin, read-out: CYP1A2 IC50 mean

human Nav1.6 (hNav1.6), sequence (Q9UQD0 whole entry): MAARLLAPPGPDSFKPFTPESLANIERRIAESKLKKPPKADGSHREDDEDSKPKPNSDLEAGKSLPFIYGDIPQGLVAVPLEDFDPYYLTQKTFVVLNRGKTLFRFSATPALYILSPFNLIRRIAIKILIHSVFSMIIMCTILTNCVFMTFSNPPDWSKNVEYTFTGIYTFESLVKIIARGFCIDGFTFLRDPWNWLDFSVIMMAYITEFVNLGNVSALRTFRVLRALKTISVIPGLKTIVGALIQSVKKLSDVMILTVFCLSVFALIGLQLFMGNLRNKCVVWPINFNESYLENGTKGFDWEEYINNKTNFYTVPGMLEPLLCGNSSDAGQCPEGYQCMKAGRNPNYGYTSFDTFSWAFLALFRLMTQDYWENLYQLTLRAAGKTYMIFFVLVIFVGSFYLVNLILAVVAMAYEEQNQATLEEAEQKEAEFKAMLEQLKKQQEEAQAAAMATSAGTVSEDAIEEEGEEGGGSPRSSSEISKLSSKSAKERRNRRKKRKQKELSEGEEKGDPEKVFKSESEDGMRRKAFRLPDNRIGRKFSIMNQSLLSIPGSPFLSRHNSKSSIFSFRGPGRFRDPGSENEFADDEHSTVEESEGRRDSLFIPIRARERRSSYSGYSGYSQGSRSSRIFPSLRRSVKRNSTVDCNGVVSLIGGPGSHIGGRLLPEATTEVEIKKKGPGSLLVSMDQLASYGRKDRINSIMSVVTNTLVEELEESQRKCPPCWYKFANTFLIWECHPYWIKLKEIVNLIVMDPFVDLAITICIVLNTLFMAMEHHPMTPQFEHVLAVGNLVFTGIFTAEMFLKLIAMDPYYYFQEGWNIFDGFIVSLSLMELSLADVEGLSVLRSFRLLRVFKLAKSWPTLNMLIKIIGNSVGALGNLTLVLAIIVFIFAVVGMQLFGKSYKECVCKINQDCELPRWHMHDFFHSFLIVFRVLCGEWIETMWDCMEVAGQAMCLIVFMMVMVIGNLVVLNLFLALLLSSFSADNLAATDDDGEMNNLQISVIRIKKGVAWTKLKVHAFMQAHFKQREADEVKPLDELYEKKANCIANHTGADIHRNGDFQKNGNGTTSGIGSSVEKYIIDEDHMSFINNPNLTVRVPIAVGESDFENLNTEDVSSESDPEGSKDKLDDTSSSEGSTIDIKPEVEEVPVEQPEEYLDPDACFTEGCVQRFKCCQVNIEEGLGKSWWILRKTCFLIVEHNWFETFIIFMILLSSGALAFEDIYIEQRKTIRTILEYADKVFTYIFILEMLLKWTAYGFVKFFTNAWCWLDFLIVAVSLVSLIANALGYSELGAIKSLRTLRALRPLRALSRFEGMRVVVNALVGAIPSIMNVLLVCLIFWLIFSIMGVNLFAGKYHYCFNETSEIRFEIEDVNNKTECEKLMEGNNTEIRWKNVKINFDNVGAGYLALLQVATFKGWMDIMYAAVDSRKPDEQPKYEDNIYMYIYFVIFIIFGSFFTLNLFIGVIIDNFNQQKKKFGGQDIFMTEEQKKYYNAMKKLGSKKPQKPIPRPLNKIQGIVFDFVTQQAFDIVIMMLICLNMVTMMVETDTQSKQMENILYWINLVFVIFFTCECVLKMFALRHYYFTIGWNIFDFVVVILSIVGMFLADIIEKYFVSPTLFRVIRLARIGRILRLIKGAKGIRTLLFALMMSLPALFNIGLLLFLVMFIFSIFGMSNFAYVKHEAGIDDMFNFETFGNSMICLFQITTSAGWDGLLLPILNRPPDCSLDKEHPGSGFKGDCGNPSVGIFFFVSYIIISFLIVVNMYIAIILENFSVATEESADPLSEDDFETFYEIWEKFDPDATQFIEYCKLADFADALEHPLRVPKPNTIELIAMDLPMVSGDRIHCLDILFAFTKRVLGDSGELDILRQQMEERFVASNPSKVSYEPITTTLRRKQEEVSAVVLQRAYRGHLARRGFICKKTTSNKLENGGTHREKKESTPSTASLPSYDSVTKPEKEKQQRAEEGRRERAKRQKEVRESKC
CYP1A2, sequence (P05177 whole entry): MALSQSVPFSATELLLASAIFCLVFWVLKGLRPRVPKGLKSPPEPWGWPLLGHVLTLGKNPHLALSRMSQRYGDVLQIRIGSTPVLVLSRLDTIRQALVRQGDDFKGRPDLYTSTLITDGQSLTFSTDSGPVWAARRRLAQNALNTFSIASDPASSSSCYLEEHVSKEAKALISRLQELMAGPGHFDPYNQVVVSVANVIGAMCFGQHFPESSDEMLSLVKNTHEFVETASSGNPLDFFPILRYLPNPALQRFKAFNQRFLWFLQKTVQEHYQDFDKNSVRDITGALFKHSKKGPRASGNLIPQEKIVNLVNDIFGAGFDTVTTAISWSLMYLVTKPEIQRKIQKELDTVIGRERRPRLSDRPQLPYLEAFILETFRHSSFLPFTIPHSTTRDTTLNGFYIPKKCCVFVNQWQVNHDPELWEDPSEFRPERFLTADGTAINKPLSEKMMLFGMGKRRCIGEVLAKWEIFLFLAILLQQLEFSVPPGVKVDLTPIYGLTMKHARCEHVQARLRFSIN

Work on FC(F)(F)c1ccc(-c2ccc3nnc(C(F)(F)F)n3n2)cc1 [Compound 1] yielded an IC50 ([1]; microsomes) of less than 1 µM.
In the case of FC(F)(F)Oc1ccc(-c2ccc3nnc(C4CC4(F)F)n3n2)cc1 (stereo not drawn) [Compound 46], the “INaL v1.6 (1 μM, % Inhibition)” value [2] is reported as “C (inhibition of greater than 70%)”, the IC50 [1, 5] is reported as 1 to 15 µM and the Clearance [3] is reported as 4.7 mL/min/kg. It also gave a T1/2 [3] of 4.5 h.
In the case of FC(F)c1nnc2cnc(-c3ccc(OC(F)(F)F)cc3)cn12 [Compound 47], the IC50 ([1]; microsomes) is reported as less than 1 µM.
With COc1cc(OC(F)(F)F)ccc1-c1cn2c(C(F)F)nnc2cn1 [Compound 48] the IC50 ([1]; microsomes) was less than 1 µM.
Compound FC(F)(F)Oc1ccc(-c2cn3c(C(F)(F)F)nnc3cn2)cc1 [Compound 56] has an IC50 [1, 5] of less than 1 µM.
In the case of FC(F)(F)c1ccc(-c2cn3c(C(F)(F)F)nnc3cn2)cc1 [Compound 62], the IC50 ([1]; microsomes) is reported as less than 1 µM.
With COCc1cc(OC(F)(F)F)ccc1-c1cn2c(C(F)(F)F)nnc2cn1 [Compound 66] the “INaL v1.6 (1 μM, % Inhibition)” value [2] was “C (inhibition of greater than 70%)” and the IC50 ([1]; microsomes) was 1 to 15 µM.
With Fc1cc(-c2cn3c(C(F)F)nnc3cn2)cnc1OCC(F)(F)F [Compound 68] the “INaL v1.6 (1 μM, % Inhibition)” value [2] was “B (inhibition of between about 30% to about 70%)”, the IC50 [1, 5] was greater than 30 µM and the Clearance [3] was 15.8 mL/min/kg. It also gave a T1/2 [3] of 1.5 h.
In the case of COc1cc(OC(F)(F)F)ccc1-c1cn2c(C(F)(F)F)nnc2cn1 [Compound 70], the IC50 ([1]; microsomes) is reported as less than 1 µM.
Work on Fc1cc(C(F)(F)F)ccc1-c1cn2c(C(F)(F)F)nnc2cn1 [Compound 76] yielded an IC50 ([1]; microsomes) of less than 1 µM.
Fc1cc(-c2cn3c(C(F)(F)F)nnc3cn2)ccc1OC(F)(F)F [Compound 79] showed an IC50 ([1]; microsomes) of less than 1 µM.
For Fc1cc(-c2cn3c(C(F)(F)F)nnc3cn2)cnc1OC1CC(F)(F)C1 [Compound 84], the “INaL v1.6 (1 μM, % Inhibition)” value [2] was “C (inhibition of greater than 70%)”, the IC50 [1, 5] was 1 to 15 µM and the Clearance [3] was 21.9 mL/min/kg. The T1/2 [3] was 2.1 h.
COC(F)(F)c1nnc2cnc(-c3ccc(OC(F)(F)F)cc3)cn12 [Compound 97] gave an IC50 ([1]; microsomes) of less than 1 µM.
With Cc1cc(-c2ccc3nnc(C(F)(F)F)n3n2)ccc1C(F)(F)F [Compound 98] the IC50 ([1]; microsomes) was less than 1 µM.
Work on FC(F)Oc1ccc(-c2ccc3nnc(C(F)(F)F)n3n2)cc1 [Compound 116] yielded an IC50 ([1]; microsomes) of less than 1 µM.
FC(F)(F)OCc1ccc(-c2ccc3nnc(C(F)(F)F)n3n2)cc1 [Compound 118] showed an IC50 ([1]; microsomes) of less than 1 µM.
For C[C@@H](Oc1ncc(-c2cn3c(C(F)F)nnc3cn2)cc1F)C(F)(F)F [Compound 134], the “INaL v1.6 (1 μM, % Inhibition)” value [2] was “C (inhibition of greater than 70%)”, the IC50 ([1]; microsomes) was greater than 30 µM and the Clearance [4] was 10.9 mL/min/kg. For the same compound, the T1/2 [4] was 2.6 h.

Reference: patent US20250163068A1, “COMPOUNDS AND THEIR METHODS OF USE” (Praxis Precision Medicines, Inc., priority 2016, published 2025)
